Residues, ends and D or L forms follow the SMILES beside them. *: point of attachment. Cbz = O=C(OCc1ccccc1)*
How the values were obtained:
c-IAP1 [1] = test: In vitro ubiquitylation assay of purified c-IAP1 and BIR deletion mutants; format: biochemical, human
Protocol: In vitro ubiquitylation assays—In vitro ubiquitylation assays were carried out as previously described (29). IAP proteins (200 nM) were incubated with or without Smac polypeptide for 2 hours at 30° C. in a reaction system containing 50 mM Tris-HCl (pH 7.5), 50 mM NaCl, 2 mM Mg-ATP, 20 μM mammalian ubiquitin, 100 nM rabbit ubiquitin-activating enzyme (E1) and 400 nM of recombinant human ubiquitin-conjugating enzymes (E2). The reactions were stopped by adding equal volumes of 2×SDS sample loading buffer followed by Western Blot analysis.
To determine whether Smac promotes auto-ubiquitylation of XIAP, purified XIAP (without tag) was incubated for 2 hours at 30° C. either with or without different concentrations of Smac or with Smac ΔA in the reconstituted ubiquitylation reaction system (Ub Mix) consisting of 50 mM Tris-HCl (pH 7.5), 50 mM NaCl, 2 mM Mg-ATP, 20 μM mammalian ubiquitin, 100 nM rabbit ubiquitin-activating enzyme (E1) and 400 nM UbCH6 (E2). The reactions were stopped by adding equal volumes of 2×SDS sample loading buffer and the products were subjected to SDS-PAGE followed by immunoblotting with anti-XIAP antibody. The purified XIAP was active in directing poly-ubiquitylation. But the auto-ubiquitylation of XIAP was not enhanced by Smac.
Smac ΔA and the peptide Smac-7M were used as negative controls. The reactions were stopped by adding equal volumes of 2×SDS sample loading buffer and the products were subjected to SDS-PAGE followed by immunoblotting with anti-c-IAP1 antibody. The arrows indicate the unmodified full length or deleted c-IAP1.
To verify this, stepwise deletion was performed of the first BIR (ΔBIR1, residues 1-161), the first two BIRs (ΔBIR1-2, residues 1-265), or all the three BIR domains (ΔBIR1-2-3, residues 1-339) from c-IAP1. All these mutants and the full-length wild type c-IAP1 were purified as a non-tagged form by using the pTYB11 Intein system (New England Biolabs).
Target sequence in this assay (Q13490 162-618): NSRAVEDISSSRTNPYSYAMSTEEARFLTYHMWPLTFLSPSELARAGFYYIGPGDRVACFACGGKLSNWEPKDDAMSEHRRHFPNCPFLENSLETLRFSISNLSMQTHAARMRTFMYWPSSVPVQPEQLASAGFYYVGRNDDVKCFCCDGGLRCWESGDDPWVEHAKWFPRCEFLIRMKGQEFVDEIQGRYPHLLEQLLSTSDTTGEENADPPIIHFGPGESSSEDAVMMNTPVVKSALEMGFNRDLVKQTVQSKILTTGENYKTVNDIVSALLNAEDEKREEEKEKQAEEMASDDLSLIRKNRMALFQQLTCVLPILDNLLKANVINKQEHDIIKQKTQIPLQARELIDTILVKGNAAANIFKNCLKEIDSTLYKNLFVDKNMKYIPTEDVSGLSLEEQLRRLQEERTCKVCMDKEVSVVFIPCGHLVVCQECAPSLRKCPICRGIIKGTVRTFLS

c-IAP2 = biological target: T1, c-IAP2 (Homo sapiens, UniProt Q13489); test: Co-transfection of HeLa cells with c-IAP2 and Smac plasmids, Western blot; format: cell-based; details: MG132 added
T1 construct: produced not only the expected full length c-IAP1 or c-IAP2; expressed in transfected cells; host or cells: HeLa
Protocol: (§1) Transfection of cultured Cells—HeLa cells were grown in DMEM supplemented with 10% fetal bovine serum. Cells were seeded onto 6-well plates the day before transfection and transfected at 70% confluence by using Lipofectin combined with Plus reagent (Invitrogen) according to the manufacture's protocols. The IAP expression plasmids (3 μg each for c-IAP1, c-IAP2 and XIAP, and 250 ng each for Livin αand Livin β) together with 2.5 μg of Smac expression plasmids or pcDNA3.1(−) blank plasmid were used for single-well transfection in the absence of antibiotics. The cells were harvested 12 hours after the transfection and lysed with 0.5% CHAPS in 20 mM HEPES (pH 7.4), 10 mM KCl, 1 mM MgCl2 and 1 mM DTT. The lysates were centrifuged and the protein concentrations of the supernatants were quantified by the modified Bradford method (36).
(§2) Western Blot analysis—Proteins were resolved by SDS-PAGE and transferred to nitrocellulose filters. The filters were blocked with 5% milk and probed with antibodies as indicated. The signals were visualized with the enhanced chemiluminescence method.
(§3) To investigate the effect of Smac polypeptide on IAP protein levels, HeLa cells were transfected with the expression vectors for Smac and various IAPs. Briefly, HeLa cells were either transfected with IAP alone (Lane 2, 4 and 6), or together with Smac polypeptide (Lane 3, 5 and 7), or with Smac polypeptide alone (Lane 1). Equal amounts of cell lysates (7 μg) were immunoblotted with either the HRP-conjugated anti-FLAG antibody (shown in the top panel) in order to detect N-terminal 3×FLAG tagged IAPs, or with the anti-c-Myc antibody (bottom panel) to detect C-terminal c-Myc tagged Smac. The ubiquitin fusion technique was used to secure the production of mature Smac protein with the expected N-terminal AVPI motif (6, 37).
(§4) Because it is known that the His^588 residue in the RING finger domain is important for the IAP E3 activity (22), this residue was mutated to test whether Smac stimulated the ubiquitylation-mediated degradation of both c-IAP1 and c-IAP2. In each case, His^588 in c-IAP1 and His^574 in c-IAP2 was mutated to Ala (H588A mutant and H574A mutant, respectively) and the results are depicted in FIGS. 2A and 2B. The c-IAP1 WT or H588A mutant plasmids together with either Smac WT or Smac ΔA mutant, or with pcDNA3.1 (−) blank plasmid were co-transfected into HeLa cells (FIG. 2A). The c-IAP2 WT or H574A mutant plasmids together with either Smac WT or Smac ΔA mutant, or with pcDNA3.1 (−) blank plasmid were co-transfected into HeLa cells (FIG. 2B). As controls, HeLa cells were also transfected with either Smac WT or ΔA plasmids together with the blank p3×FLAG-CMV-7 plasmid. The transfected cells were cultivated either in the absence (see lanes 1-7 of FIGS. 2A and 2B) or in the presence (see lanes 8-14 of FIGS. 2A and 2B) of MG132. Equal amounts of soluble proteins (7 μg) from the transfected cells were immunoblotted with either the HRP-conjugated anti-FLAG antibody (see top panel of FIGS. 2A and 2B) to detect N-terminal 3×FLAG tagged IAPs, or with the anti-c-Myc antibody (see middle panel of FIGS. 2A and 2B) to detect C-terminal c-Myc tagged Smac. The anti-Actin immunoblotting results were to show equal protein loading (see bottom panel of FIGS. 2A and 2B).

XIAP = XIAP (Homo sapiens, UniProt P98170); test: Co-transfection of HeLa cells with XIAP and Smac plasmids, Western blot; format: cell-based; parameters: expressed in transfected cells; host or cells: HeLa; details: presence of MG132
Protocol: as §1, §2, §3
It is known that XIAP is ubiquitylated by its own E3 activity when expressed in HEK 293T cells and that this auto-ubiquitylation and subsequent degradation is stimulated by Reaper (26). In the current study, XIAP transiently expressed in HeLa cells was ubiquitylated as well; however, mono-ubiquitylation rather than poly-ubiquitylation of XIAP was the major product (see FIG. 3A). Briefly, XIAP WT or H467A mutant plasmids together with either Smac WT or ΔA, or with pcDNA3.1(−) blank plasmid, were co-transfected into the HeLa cells. As controls, HeLa cells were also transfected with either Smac WT or ΔA plasmids together with the blank p3×FLAG-CMV-7 plasmid. The transfected cells were cultivated either in the absence (see lanes 1-7 of FIG. 3A) or in the presence (see lanes 8-14 of FIG. 3A) of MG132. Equal amounts of soluble proteins (7 μg) from the transfected cells were immunoblotted with either the HRP-conjugated anti-FLAG antibody (see top panel of FIG. 3A) to detect N-terminal 3×FLAG tagged IAPs, or with the anti-c-Myc antibody (see middle panel of FIG. 3A) to detect Smac. The anti-Actin immunoblotting results were to show equal protein loading (see bottom panel of FIG. 3A).

c-IAP1 [2] = test: Co-transfection of HeLa cells with c-IAP1 and Smac plasmids, Western blot; format: cell-based, human; details: MG132 added to the culture medium
Protocol: as §1, §2, §3, §4

T1 sequence (Q13489 whole entry): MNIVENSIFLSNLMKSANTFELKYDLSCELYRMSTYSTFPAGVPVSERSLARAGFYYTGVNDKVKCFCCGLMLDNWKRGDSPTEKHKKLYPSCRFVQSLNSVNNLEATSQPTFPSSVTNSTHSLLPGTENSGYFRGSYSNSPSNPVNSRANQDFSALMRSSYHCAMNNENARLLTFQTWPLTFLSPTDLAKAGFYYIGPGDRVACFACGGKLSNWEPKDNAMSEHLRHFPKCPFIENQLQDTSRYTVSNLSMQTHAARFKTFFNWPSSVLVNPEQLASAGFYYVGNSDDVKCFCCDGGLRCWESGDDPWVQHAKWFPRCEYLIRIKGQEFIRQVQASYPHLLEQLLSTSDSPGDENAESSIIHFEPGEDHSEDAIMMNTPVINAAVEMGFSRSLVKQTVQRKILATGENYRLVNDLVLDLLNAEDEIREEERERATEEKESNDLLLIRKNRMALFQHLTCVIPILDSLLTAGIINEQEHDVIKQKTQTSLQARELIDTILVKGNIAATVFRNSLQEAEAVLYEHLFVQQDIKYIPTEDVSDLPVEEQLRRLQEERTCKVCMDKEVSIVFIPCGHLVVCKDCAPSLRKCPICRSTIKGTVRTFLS
Chain of XIAP (P98170 whole entry): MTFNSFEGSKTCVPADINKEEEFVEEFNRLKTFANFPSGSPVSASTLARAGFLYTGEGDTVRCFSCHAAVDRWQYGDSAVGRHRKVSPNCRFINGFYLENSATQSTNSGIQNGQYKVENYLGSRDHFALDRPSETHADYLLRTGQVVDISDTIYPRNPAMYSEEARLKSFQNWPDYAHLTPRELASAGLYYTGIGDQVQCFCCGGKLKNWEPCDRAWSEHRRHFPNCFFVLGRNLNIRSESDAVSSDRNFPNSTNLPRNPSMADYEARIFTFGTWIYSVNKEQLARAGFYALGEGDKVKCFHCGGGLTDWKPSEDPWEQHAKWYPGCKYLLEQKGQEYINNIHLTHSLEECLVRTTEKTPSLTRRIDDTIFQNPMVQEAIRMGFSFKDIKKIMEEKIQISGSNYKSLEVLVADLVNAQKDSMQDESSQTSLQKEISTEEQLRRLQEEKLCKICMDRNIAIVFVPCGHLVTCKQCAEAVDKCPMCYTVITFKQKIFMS

Row | Compound | stimulation of E3 activity of c-IAP compared with full length Smac (c-IAP1 [1]; as illustrated in the Examples) | E3 activity of c-IAP1ΔBIR1 (c-IAP1 [1]; peptides and controls, FIG. 7B) | level of c-IAP2 (c-IAP2) | poly-ubiquitylated XIAP products (XIAP) | H588A c-IAP1 protein level (c-IAP1 [2]) | amount of wild type c-IAP1 (c-IAP1 [2])
1 | AVPIAQ (listed as Homo sapiens) [Smac-6] | as effectively as the full length Smac polypeptide | effectively stimulated E3 activity | – | – | – | –
2 | CC(C)C[C@@H](C=O)NC(=O)[C@H](CC(C)C)NC(=O)[C@H](CC(C)C)NC(=O)OCc1ccccc1 [MG132, reference compound] (Cbz-Leu-Leu-Leu-aldehyde) | – | – | did not show such a significant change | more poly-ubiquitylated XIAP products could be detected | did not cause a significant increase | dramatically increased

— patent US20060019335A1, “Compositions and methods to promote c-IAP autodegradation” (priority 2004, published 2006)
